Reference: US8815854B2, “Substituted imidazopyridinyl compounds” (ArQule, Inc., priority 2011, dated 2014)

molecular target: Full-length inactive AKT1 (Homo sapiens (Human), UniProt P31749); test: Inactive Akt Alpha Screen Assay (AKT1, crosstide substrate); details: full-length inactive AKT1 activated by PDK1 and MAPKAPK2, lipid vesicles, 50 μM ATP; biotinylated crosstide substrate; read-out: Akt1 biochemical assay IC50 AlphaScreen crosstide
Protocol: AKT1 activity was assayed using the GSK3-derived biotinylated peptide substrate, crosstide (biotin-GRPRTSSFAEG), and AlphaScreen™ (Amplified Luminescent Proximity Homogeneous Assay) technology. AKT1 activation was achieved by the addition of the activating kinases PDK1 and MAPKAPK2, lipid vesicles, and ATP. The extent of peptide phosphorylation was determined using a phospho-AKT substrate antibody and acceptor beads conjugated to Protein A and donor beads conjugated to streptavidin that bind to the biotin on the peptide. Excitation of the donor beads converted ambient oxygen to excited singlet oxygen which, when in close proximity to acceptor beads, reacted with acceptor beads resulting in signal amplification.
Test inhibitors and controls ((S)-1-(5-(3-methyl-1H-indazol-5-yl)pyridin-3-yl)oxy)-3-phenylpropan-2-amine, 1-(1-(4-(7-phenyl-1H-imidazo[4,5-g]quinoxalin-6-yl)benzyl)piperidin-4-yl)-1H-benzo[d]imidazol-2(3H)-one, and 8-(4-(1-aminocyclobutyl)phenyl)-9-phenyl-[1,2,4]triazolo[3,4-f][1,6]naphthyridin-3(2H)-one) were prepared in 10% DMSO at 10-fold the desired final concentration, and added to each well of a reaction plate (Corning 96-well half-area solid white nonbinding surface plate) in a volume of 2.5 μL. […] After a 20 minute pre-incubation at room temperature, the kinase reaction was initiated by the addition of 5 μL of an activation mixture diluted in assay buffer containing biotinylated crosstide, PDK1, MAPKAPK2, DOPS/DOPC, PtdIns(3,4,5)P3, and ATP for final concentrations of 60 nM biotinylated crosstide, 0.1 nM PDK1, 0.7 nM MK2, 5.5 μM DOPS, 5.5 μM DOPC, 0.5 μM PtdIns(3,4,5)P3, and 50 μM ATP. The plates were incubated for 30 minutes at room temperature, and then stopped in the dark by the addition of 10 μL stop/detection mixture prepared in assay buffer containing EDTA, AlphaScreen™ Streptavidin Donor and Protein A Acceptor beads, and phospho-AKT substrate antibody for final concentrations of 10 mM EDTA, 500 ng/well of both AlphaScreen™ Streptavidin Donor beads and Protein A Acceptor beads, and phospho-AKT substrate antibody at a final dilution of 1:350. Assay plates were incubated for 90 minutes at room temperature in the dark, and the plates were read on a Perkin Elmer Envision Multilabel plate reader (excitation wavelength: […], emission wavelength: 570 nm).
Envision Instrument Settings: • Instrument: Perkin Elmer Envision • Plate: 96 well • Program Name: • Excitation: Ex Top • Minor: General Dual—Slot 2 • Excitation Filter: CFP430 Ex. Slot 2 • Emission Filter Emission 579—Em slot 2 • 2nd Emission Filter: None • Measurement Height (mm): 3.8 • Excitation light (%): 1 • Detector gain: 1 • 2nd detector gain: 0 • # Flashes: 10 • # Flashed/AD: 1 • Reference Signal: 383722 • AD gain: 4 • Reference Excitation (%): 100

Chain of Full-length inactive AKT1 (P31749 whole entry): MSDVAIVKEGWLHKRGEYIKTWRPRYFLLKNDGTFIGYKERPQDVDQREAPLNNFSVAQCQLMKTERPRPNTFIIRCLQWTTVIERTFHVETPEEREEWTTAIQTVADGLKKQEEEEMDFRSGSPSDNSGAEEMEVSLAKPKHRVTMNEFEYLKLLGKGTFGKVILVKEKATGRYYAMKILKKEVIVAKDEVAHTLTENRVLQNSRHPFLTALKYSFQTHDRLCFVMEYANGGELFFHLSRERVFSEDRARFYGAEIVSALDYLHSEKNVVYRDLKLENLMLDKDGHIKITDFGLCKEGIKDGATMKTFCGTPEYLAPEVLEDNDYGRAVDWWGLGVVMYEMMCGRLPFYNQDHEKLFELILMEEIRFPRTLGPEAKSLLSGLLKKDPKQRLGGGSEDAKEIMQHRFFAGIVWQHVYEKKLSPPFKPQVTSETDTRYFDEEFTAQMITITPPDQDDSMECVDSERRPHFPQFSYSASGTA

SMILES | IC50 [nM]
NC1(c2ccc(-n3c(-c4cccnc4F)nc4ccc(-c5ccccc5)nc43)cc2)CCC1 [Cmpd 7, 1-{4-[2-(2-fluoropyridin-3-yl)-5-phenyl-3H-imidazo[4,5-b]pyridin-3-yl]phenyl}cyclobutanamine] | 11.5
NC1(c2ccc(-n3c(-c4cccs4)nc4ccc(-c5cccc(N6CCOCC6)c5)nc43)cc2)CCC1 [Cmpd 12, 1-{4-[5-(3-morpholin-4-ylphenyl)-2-(2-thienyl)-3H-imidazo[4,5-b]pyridin-3-yl]phenyl} cyclobutanamine] | 7.17
NC1(c2ccc(-n3c(-c4ccccn4)nc4ccc(-c5cccc(N6CCOCC6)c5)nc43)cc2)CCC1 [Cmpd 14, 1-{4-[5-(3-morpholin-4-ylphenyl)-2-pyridin-2-yl-3H-imidazo[4,5-b]pyridin-3-yl]phenyl} cyclobutanamine] | 1.69
NC1(c2ccc(-n3c(-c4cc[nH]c4)nc4ccc(-c5cccc(N6CCOCC6)c5)nc43)cc2)CCC1 [Cmpd 19, 1-{4-[5-(3-morpholin-4-ylphenyl)-2-(1H-pyrrol-3-yl)-3H-imidazo[4,5-b]pyridin-3-yl]phenyl} cyclobutanamine] | 5.67
NC1(c2ccc(-n3c(C4CCCCC4)nc4ccc(-c5cccc(N6CCOCC6)c5)nc43)cc2)CCC1 [Cmpd 24, 1-{4-[2-cyclohexyl-5-(3-morpholin-4-ylphenyl)-3H-imidazo[4,5-b]pyridin-3-yl]phenyl} cyclobutanamine] | 1160
NC1(c2ccc(-n3c(-c4ccc(O)cc4)nc4ccc(-c5cccc(N6CCOCC6)c5)nc43)cc2)CCC1 [Cmpd 26, 4-{3-[4-(1-aminocyclobutyl)phenyl]-5-(3-morpholin-4-ylphenyl)-3H-imidazo[4,5-b]pyridin-2-yl}phenol] | 4.42
NC1(c2ccc(-n3c(-c4cccc(F)c4)nc4ccc(-c5cccc(N6CCOCC6)c5)nc43)cc2)CCC1 [Cmpd 30, 1-{4-[2-(3-fluorophenyl)-5-(3-morpholin-4-ylphenyl)-3H-imidazo[4,5-b]pyridin-3-yl]phenyl}cyclobutanamine] | 4.78
NC1(c2ccc(-n3c(-c4ccc(F)cc4)nc4ccc(-c5cccc(N6CCOCC6)c5)nc43)cc2)CCC1 [Cmpd 31, 1-{4-[2-(4-fluorophenyl)-5-(3-morpholin-4-ylphenyl)-3H-imidazo[4,5-b]pyridin-3-yl]phenyl}cyclobutanamine] | 35.5
NC1(c2ccc(-n3c(-c4ccc(Cl)cc4)nc4ccc(-c5cccc(N6CCOCC6)c5)nc43)cc2)CCC1 [Cmpd 34, 1-{4-[2-(4-chlorophenyl)-5-(3-morpholin-4-ylphenyl)-3H-imidazo[4,5-b]pyridin-3-yl]phenyl}cyclobutanamine] | 5.9
CNC(=O)c1cccc(-c2ccc3nc(-c4ccccc4)n(-c4ccc(C5(N)CCC5)cc4)c3n2)c1 [Cmpd 37] | 4.96
NC1(c2ccc(-n3c(C4CC4)nc4ccc(-c5cccc(N6CCOCC6)c5)nc43)cc2)CCC1 [Cmpd 44, 1-{4-[2-cyclopropyl-5-(3-morpholin-4-ylphenyl)-3H-imidazo[4,5-b]pyridin-3-yl]phenyl}cyclobutanamine] | 871
NC1(c2ccc(-n3c(-c4ccccc4)nc4ccc(Nc5ccccc5)nc43)cc2)CCC1 [Cmpd 47, 3-[4-(1-aminocyclobutyl)phenyl]-N,2-diphenyl-3H-imidazo[4,5-b]pyridin-5-amine] | 4.13

Results, then the molecule that gave them:

IC50 [nM] | SMILES
12.6 | NC1(c2ccc(-n3c(-c4ccccc4)nc4ccc(-c5ccccc5)nc43)cc2)CCC1 [Cmpd 5, 1-[4-(2,5-diphenyl-3H-imidazo[4,5-b]pyridin-3-yl)phenyl] cyclobutanamine]
3.47 | NC1(c2ccc(-n3c(-c4ccccc4)nc4ccc(-c5cccc(N6CCOCC6)c5)nc43)cc2)CCC1 [Cmpd 9, 1-{4-[5-(3-morpholin-4-ylphenyl)-2-phenyl-3H-imidazo[4,5-b]pyridin-3-yl]phenyl}cyclobutanamine]
1.99 | NC1(c2ccc(-n3c(-c4ccccc4F)nc4ccc(-c5cccc(N6CCOCC6)c5)nc43)cc2)CCC1 [Cmpd 11, 1-{4-[2-(2-fluorophenyl)-5-(3-morpholin-4-ylphenyl)-3H-imidazo[4,5-b]pyridin-3-yl]phenyl}cyclobutanamine]
5.78 | NC1(c2ccc(-n3c(-c4ccsc4)nc4ccc(-c5cccc(N6CCOCC6)c5)nc43)cc2)CCC1 [Cmpd 13, 1-{4-[5-(3-morpholin-4-ylphenyl)-2-(3-thienyl)-3H-imidazo[4,5-b]pyridin-3-yl]phenyl} cyclobutanamine]
4.3 | NC1(c2ccc(-n3c(-c4cccnc4)nc4ccc(-c5cccc(N6CCOCC6)c5)nc43)cc2)CCC1 [Cmpd 15, 1-{4-[5-(3-morpholin-4-ylphenyl)-2-pyridin-3-yl-3H-imidazo[4,5-b]pyridin-3-yl]phenyl} cyclobutanamine]
7.75 | NC1(c2ccc(-n3c(-c4ccncc4)nc4ccc(-c5cccc(N6CCOCC6)c5)nc43)cc2)CCC1 [Cmpd 16, 1-{4-[5-(3-morpholin-4-ylphenyl)-2-pyridin-4-yl-3H-imidazo[4,5-b]pyridin-3-yl]phenyl} cyclobutanamine]
4.74 | NC1(c2ccc(-n3c(-c4nccs4)nc4ccc(-c5cccc(N6CCOCC6)c5)nc43)cc2)CCC1 [Cmpd 17, 1-{4-[5-(3-morpholin-4-ylphenyl)-2-(1,3-thiazol-2-yl)-3H-imidazo[4,5-b]pyridin-3-yl]phenyl} cyclobutanamine]
7.27 | NC1(c2ccc(-n3c(-c4cc[nH]n4)nc4ccc(-c5cccc(N6CCOCC6)c5)nc43)cc2)CCC1 [Cmpd 18, 1-{4-[5-(3-morpholin-4-ylphenyl)-2-(1H-pyrazol-3-yl)-3H-imidazo[4,5-b]pyridin-3-yl]phenyl} cyclobutanamine]
5260 | COC(=O)c1ccccc1-c1nc2ccc(-c3cccc(N4CCOCC4)c3)nc2n1-c1ccc(C2(N)CCC2)cc1 [Cmpd 20, methyl 2-{3-[4-(1-aminocyclobutyl)phenyl]-5-(3-morpholin-4-ylphenyl)-3H-imidazo[4,5-b]pyridin-2-yl} benzoate]
6.27 | NC(=O)c1cccc(-c2ccc3nc(-c4ccccc4)n(-c4ccc(C5(N)CCC5)cc4)c3n2)c1 [Cmpd 35, 3-{3-[4-(1-aminocyclobutyl)phenyl]-2-phenyl-3H-imidazo[4,5-b]pyridin-5-yl}benzamide]
5.71 | CN(C)C(=O)c1cccc(-c2ccc3nc(-c4ccccc4)n(-c4ccc(C5(N)CCC5)cc4)c3n2)c1 [Cmpd 36, 3-{3-[4-(1-aminocyclobutyl)phenyl]-2-phenyl-3H-imidazo[4,5-b]pyridin-5-yl}-N,N-dimethylbenzamide]
4.27 | NC1(c2ccc(-n3c(-c4cnccn4)nc4ccc(-c5cccc(N6CCOCC6)c5)nc43)cc2)CCC1 [Cmpd 42, 1-{4-[5-(3-morpholin-4-ylphenyl)-2-pyrazin-2-yl-3H-imidazo[4,5-b]pyridin-3-yl]phenyl} cyclobutanamine]
